Laboratory results reported in PubChem BioAssay (NCI).
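Each compound was tested at five concentrations against cells in 96-well plates for 48 hours. Here, GI50 denotes the concentration required for 50% inhibition of growth. Definition used: TGI = concentration required for complete inhibition of growth.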

How the values were obtained:
Experiment in all cases: growth of human tumour cells (NCI), 48 h
[1] = test system: BT-549 breast
[2] = test system: DU-145 prostate
[3] = test system: CCRF-CEM leukemia
[4] = test system: T-47D breast
[5] = test system: MDA-MB-435
[6] = test system: UACC-62 melanoma
[7] = test system: RPMI-8226 leukemia
[8] = test system: EKVX NSCLC
[9] = test system: UO-31 renal
[10] = test system: NCI-H522 lung
[11] = test system: OVCAR-3 ovarian
[12] = test system: TK-10 renal
[13] = test system: K-562 leukemia
[14] = test system: MDA-MB-231 breast
[15] = test system: SW-620 colon
[16] = test system: HT29 colon
[17] = test system: OVCAR-8 ovarian
[18] = test system: SK-MEL-28 melanoma
[19] = test system: HCT-116 colon
[20] = test system: MALME-3M melanoma
[21] = test system: HL-60(TB) leukemia
[22] = test system: UACC-257 melanoma
[23] = test system: COLO 205 colon
[24] = test system: HCC-2998 colon
[25] = test system: SK-OV-3 ovarian
[26] = test system: PC-3 prostate
[27] = test system: SF-268 CNS
[28] = test system: SNB-19 CNS
[29] = test system: M14 melanoma
[30] = test system: U251 CNS
[31] = test system: NCI-H23 lung
[32] = test system: MDA-MB-468 breast
[33] = test system: NCI-H226 lung
[34] = test system: KM12 colon
[35] = test system: OVCAR-4 ovarian
[36] = test system: 786-0 renal
[37] = test system: MCF7 breast
[38] = test system: SF-539 CNS
[39] = test system: A549 NSCLC
[40] = test system: NCI/ADR-RES ovarian
[41] = test system: CAKI-1 renal
[42] = test system: NCI-H460 lung
[43] = test system: HOP-62 NSCLC
[44] = test system: MOLT-4 leukemia
[45] = test system: LOX IMVI melanoma
[46] = test system: SK-MEL-2 melanoma
[47] = test system: SF-295 CNS
[48] = test system: SK-MEL-5 melanoma
[49] = test system: OVCAR-5 ovarian
[50] = test system: SNB-75 CNS
[51] = test system: SN12C renal
[52] = test system: HS 578T breast
[53] = test system: A498 renal
[54] = test system: HOP-92 NSCLC
[55] = test system: HCT-15 colon
[56] = test system: RXF 393 renal
[57] = test system: SR leukemia
[58] = test system: IGROV1 ovarian
[59] = test system: ACHN renal

C#CCN(C)CCCOc1ccc(N(CC)C(=O)c2cc(C(C)C)c(O)cc2O)cc1Cl was tested, and the GI50 [1] was 1750 nM, the TGI [1] was 14300 nM and the GI50 [2] was 59.5 nM. The TGI [2] was 15300 nM, the GI50 [3] was 85.7 nM and the TGI [3] was 13300 nM. For the same molecule, the GI50 [4] was 88.8 nM, the TGI [4] was 11900 nM and the GI50 [5] was 174 nM. It also gave a TGI [5] of 12000 nM, a GI50 [6] of 174 nM and a TGI [6] of 793 nM. The GI50 [7] was 294 nM, the TGI [7] was 3170 nM and the GI50 [8] was 484 nM. The TGI [8] was 8530 nM, the GI50 [9] was 156 nM and the TGI [9] was 13200 nM. For the same molecule, the GI50 [10] was 121 nM, the TGI [10] was 5480 nM and the GI50 [11] was 595 nM. It also gave a TGI [11] of 14900 nM, a GI50 [12] of 195 nM and a TGI [12] of 12300 nM. For the same molecule, the GI50 [13] was 91.4 nM, the TGI [13] was 23000 nM and the GI50 [14] was 230 nM. It also gave a TGI [14] of 2750 nM, a GI50 [15] of 192 nM and a TGI [15] of 13800 nM. For the same molecule, the GI50 [16] was 2970 nM, the TGI [16] was 13100 nM and the GI50 [17] was 219 nM. It also gave a TGI [17] of 15600 nM, a GI50 [18] of 413 nM and a TGI [18] of 12700 nM. For the same molecule, the GI50 [19] was 138 nM, the TGI [19] was 13300 nM and the GI50 [20] was 207 nM. For the same molecule, the TGI [20] was 1580 nM, the GI50 [21] was 73 nM and the TGI [21] was 2720 nM. The GI50 [22] was 434 nM, the TGI [22] was 11400 nM and the GI50 [23] was 3080 nM. The TGI [23] was 13400 nM, the GI50 [24] was 273 nM and the TGI [24] was 1910 nM. For the same molecule, the GI50 [25] was 52.1 nM, the TGI [25] was 12400 nM and the GI50 [26] was 232 nM. It also gave a TGI [26] of 14700 nM, a GI50 [27] of 1660 nM and a TGI [27] of 23900 nM. For the same molecule, the GI50 [28] was 430 nM, the TGI [28] was 13400 nM and the GI50 [29] was 462 nM. For the same molecule, the TGI [29] was 13000 nM, the GI50 [30] was 399 nM and the TGI [30] was 15100 nM. The GI50 [31] was 346 nM, the TGI [31] was 13900 nM and the GI50 [32] was 115 nM. It also gave a TGI [32] of 462 nM, a GI50 [33] of 604 nM and a TGI [33] of 17900 nM. It also gave a GI50 [34] of 111 nM, a TGI [34] of 10500 nM and a GI50 [35] of 1630 nM. For the same molecule, the TGI [35] was 19400 nM, the GI50 [36] was 1370 nM and the TGI [36] was 17400 nM. For the same molecule, the GI50 [37] was 56.1 nM, the TGI [37] was 13700 nM and the GI50 [38] was 361 nM. The TGI [38] was 12800 nM, the GI50 [39] was 146 nM and the TGI [39] was 15000 nM. The GI50 [40] was 339 nM, the TGI [40] was 7320 nM and the GI50 [41] was 350 nM. The TGI [41] was 14600 nM, the GI50 [42] was 68.7 nM and the TGI [42] was 10900 nM. It also gave a GI50 [43] of 400 nM, a TGI [43] of 19000 nM and a GI50 [44] of 139 nM. The TGI [44] was 13200 nM, the GI50 [45] was 139 nM and the TGI [45] was 359 nM. It also gave a GI50 [46] of 979 nM, a TGI [46] of 15500 nM and a GI50 [47] of 384 nM. The TGI [47] was 12600 nM, the GI50 [48] was 397 nM and the TGI [48] was 1790 nM. The GI50 [49] was 482 nM, the TGI [49] was 16000 nM and the GI50 [50] was 947 nM. For the same molecule, the TGI [50] was 16100 nM, the GI50 [51] was 105 nM and the TGI [51] was 8280 nM. For the same molecule, the GI50 [52] was 1560 nM, the TGI [52] was 21100 nM and the GI50 [53] was 679 nM. It also gave a TGI [53] of 15500 nM, a GI50 [54] of 446 nM and a TGI [54] of 2700 nM. It also gave a GI50 [55] of 94.8 nM, a TGI [55] of 12200 nM and a GI50 [56] of 917 nM. The TGI [56] was 12500 nM, the GI50 [57] was 48.3 nM and the TGI [57] was 8500 nM. For the same molecule, the GI50 [58] was 193 nM, the TGI [58] was 13600 nM and the GI50 [59] was 105 nM. For the same molecule, the TGI [59] was 12700 nM.
